These results are taken from US20250206761A1, “HALOINDOLE MACROCYCLIC COMPOUNDS FOR THE TREATMENT OF CANCER” (Hoffmann-La Roche Inc., priority 2022, published 2025).

Molecules are shown by their SMILES.

Assay [1] relates to NCI-H358 (ATCC-CRL5807) cells. The assay is described as follows: Cell viability assay, G12C (NCI-H358). Type of assay: cell-based, human. The settings on record: Homo sapiens; KRAS cell viability, NCI-H358, 72 hrs, Cell Counting Kit-8. On the procedure:
(§1) The purpose of this cellular assay was to determine the effects of test compounds on the proliferation of human cancer cell lines NCI-H358 (ATCC-CRL5807) cells, AGS (ATCC-CRL-1739) cells, SW620 (ATCC-CCL-227) over a 3-day treatment period by quantifying the amount of NADPH present at endpoint using Cell Counting Kit-8.
(§2) Cells were seeded at 5,000 cells/well (NCI-H358), 2,000 cells/well (AGS) 2,000 cells/well (SW620) in 96-well assay plates (Corning-3699) and incubated overnight. On the day of the assay, diluted compounds were then added in a final concentration of 0.5% DMSO. After 72 hrs incubation, a tenth of the volume of cell counting kit 8 (Dnjindo-CK04) was added into each well. Read the signal (OD450 minus OD650) using EnVision after 2 hrs incubation. IC50 was determined by fitting a 4-parameter sigmoidal concentration response model.

Assay [2] addresses KRAS G12D binding to BRAF (Homo sapiens (Human), UniProt P01116+P62937, G12D). Nature of the assay: KRAS-BRAF with CYPA (500 nM) interaction assay (TR-FRET), G12D. It counts as biochemical. On the procedure: (§3) In this example, TR-FRET was also used to measure the compound or compound-CYPA dependent disruption of the KRAS G12C-BRAF complex. This protocol was also used to measure disruption of KRAS G12D or KRAS G12V binding to BRAF by a compound of the invention, respectively. In assay buffer containing 25 mM HEPES PH=7.4 (4-(2-hydroxyethyl)-1-piperazineethanesulfonic acid, Thermo, 15630080), 0.002% Tween20, 0.1% BSA, 100 mM NaCl, 5 mM MgCl2, 10 μM GMPPNP (Guanosine 5′-[β,γ-imido]triphosphate trisodium salt hydrate, Sigma, G0635), […] 384-well assay plate at final concentrations of 50 nM, 6.25 nM and 1 nM, respectively. Compound was present in plate wells as a 16-point 3-fold dilution series starting at a final concentration of 10 μM and incubated for 3 hours. A mixture of MAb Anti-6His-XL665 (Cisbio, 61HISXLB) and Mab anti-GST-TB cryptate (Cisbio, 61GSTTLB) was then added at a final concentration of 6.67 nM and 0.21 nM, respectively, and the plate was incubated for an additional 1.5 hours. TR-FRET signal was read on a PHERstar FSX microplate reader (Ex320 nm, Em 665/615 nm). Compounds that facilitate disruption of the KRAS-BRAF complex were identified as those eliciting a decrease in the TR-FRET ratio relative to DMSO control wells.

The subject of the next assay is SW620 (ATCC-CCL-227). Nature of the assay: Cell viability assay, G12V (SW620). Type of assay: cell-based, human. The settings on record: Homo sapiens, SW-620; KRAS cell viability, SW620, 72 hrs, Cell Counting Kit-8. On the procedure: as §1, §2
Assay [3] relates to phosphorylation of ERK, KRAS G12C in NCJ-H358 cells. The assay is described as follows: pERK inhibition assay, KRAS G12C. Type of assay: cell-based, human. The settings on record: Homo sapiens, 4 hours. On the procedure: (§4) This assay is to measure the ability of test compounds in inhibiting the phosphorylation of ERK, the downstream signaling of KRAS G12C in NCJ-H358 cells, KRAS G12D in AGS cells, and KRAS G12V in SW620. NCJ-H358 (ATCC-CRL5807) cells, AGS (ATCC-CRL-1739) cells, SW620 (ATCC-CCL-227) cells were all grown and maintained using RPMI-1640 medium (Thermo Fisher Scientific) with 10% fetal bovine serum and 1% penicillin/streptomycin. On the day prior to compound addition, cells were plated in tissue culture-treated 96 well plates (Corning-3699) at a density of 30,000 cell/well, 20,000 cell/well, 30,000 cell/well for NCJ-H358, AGS and SW620 respectively, and allowed for attachment overnight. Diluted compounds were then added in a final concentration of 0.5% DMSO. After 4 hours of incubation, the medium was removed, 100 μL of 4% formaldehyde was added, and the assay plates were incubated at room temperature for 20 minutes. The plates were then washed once with phosphate buffered saline (PBS), and permeabilized with 100 μL of chilled methanol for 10 minutes. Non-specific antibody binding to the plates was blocked using 50 μL 1×BSA blocking buffer (Thermo-37520, 10-fold dilution by Phosphate-Buffered Saline Tween (PBST) for at least 1 hour at room temperature.
(§5) The amount of phosphor-ERK was determined using an antibody specific for phosphorylated form of ERK. Primary antibody (pERK, CST-4370, Cell Signaling Technology) was diluted 1:300 in blocking buffer, with 50 μL aliquoted to each well, and incubated overnight at 4′° C. Cells was washed five times for 5 minutes with PBST. Secondary antibody ([…] anti-rabbit IgG, CST-7074, Cell Signaling Technology) was diluted 1:1000 in blocking buffer, and 50 μL was added to each well and incubated 1-2 hrs at room temperature. Cells was washed 5 times for 5 minutes with PBST, 100 μL TMB ELISA substrate (abcam-ab171523) were added and gently shake for 20 minutes. 50 μL stop solution (abcam-ab171529) were added, and then read the signal (OD450) by EnVision.
(§6) IC50 was determined by fitting a 4-parameter sigmoidal concentration response model.

In assay [4] the test system is phosphorylation of ERK, KRAS G12V in SW620. The assay is described as follows: pERK inhibition assay, KRAS G12V. It counts as cell-based, human. The settings on record: Homo sapiens, SW-620, SW620, 4 hours. The method, then: as §4, §5, §6
Assay [5] has as its target KRAS G12V binding to BRAF (Homo sapiens (Human), UniProt P01116+P62937, G12V). Nature of the assay: KRAS-BRAF with CYPA (500 nM) interaction assay (TR-FRET), G12V. Type of assay: biochemical. On the procedure:
In this example, TR-FRET was also used to measure the compound or compound-CYPA dependent disruption of the KRAS G12C-BRAF complex. This protocol was also used to measure disruption of KRAS G12D or KRAS G12V binding to BRAF by a compound of the invention, respectively. In assay buffer containing 25 mM HEPES PH=7.4 (4-(2-hydroxyethyl)-1-piperazineethanesulfonic acid, Thermo, 15630080), 0.002% Tween20, 0.1% BSA, 100 mM NaCl, 5 mM MgCl2, 10 μM GMPPNP (Guanosine 5′-[β,γ-imido]triphosphate trisodium salt hydrate, Sigma, G0635), […], GMPPNP loaded 6His-KRAS proteins, and […], 6.25 nM and 1 nM, respectively. Compound was present in plate wells as a 16-point 3-fold dilution series starting at a final concentration of 10 μM and incubated for 3 hours. A mixture of MAb Anti-6His-XL665 (Cisbio, 61HISXLB) and Mab anti-GST-TB cryptate (Cisbio, 61GSTTLB) was then added at a final concentration of 6.67 nM and 0.21 nM, respectively, and the plate was incubated for an additional 1.5 hours. TR-FRET signal was read on a PHERstar FSX microplate reader (Ex320 nm, Em 665/615 nm). Compounds that facilitate disruption of the KRAS-BRAF complex were identified as those eliciting a decrease in the TR-FRET ratio relative to DMSO control wells.

For the next assay, the target named is KRAS G12C-BRAF complex (Homo sapiens (Human), UniProt P01116+P62937, G12C). Nature of the assay: KRAS-BRAF with CYPA (500 nM) interaction assay (TR-FRET), G12C. It counts as biochemical. On the procedure:
as §3

Assay [6] has as its system AGS (ATCC-CRL-1739) cells. Nature of the assay: Cell viability assay, G12D (AGS). It counts as cell-based, human. As to conditions: Homo sapiens, KRAS cell viability, 72 hrs, Cell Counting Kit-8. The method, then: as §1, §2

KRAS G12V binding to BRAF, sequence (P01116-2 other isoform, or with tags, fused parts or gaps G12V): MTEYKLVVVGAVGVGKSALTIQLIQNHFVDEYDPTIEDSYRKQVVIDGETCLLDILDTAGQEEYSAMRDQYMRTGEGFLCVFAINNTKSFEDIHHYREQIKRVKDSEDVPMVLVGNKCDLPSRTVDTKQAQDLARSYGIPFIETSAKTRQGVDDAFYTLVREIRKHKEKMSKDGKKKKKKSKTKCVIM
KRAS G12V binding to BRAF, sequence (P62937 whole entry): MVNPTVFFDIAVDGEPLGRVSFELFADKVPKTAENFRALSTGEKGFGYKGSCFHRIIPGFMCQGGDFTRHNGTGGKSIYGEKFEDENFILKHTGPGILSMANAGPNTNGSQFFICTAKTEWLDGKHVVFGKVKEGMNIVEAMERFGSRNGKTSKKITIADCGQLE
KRAS G12C-BRAF complex, sequence (P01116-2 other isoform, or with tags, fused parts or gaps G12C): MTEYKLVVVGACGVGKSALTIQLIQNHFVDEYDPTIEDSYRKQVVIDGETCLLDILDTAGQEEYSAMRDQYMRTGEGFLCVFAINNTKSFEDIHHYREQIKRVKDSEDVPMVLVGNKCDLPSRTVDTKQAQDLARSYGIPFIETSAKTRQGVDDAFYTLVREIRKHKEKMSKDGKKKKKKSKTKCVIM
KRAS G12C-BRAF complex, sequence (P62937 whole entry): as the sequence (P62937 whole entry) above
KRAS G12D binding to BRAF, sequence (P01116-2 other isoform, or with tags, fused parts or gaps G12D): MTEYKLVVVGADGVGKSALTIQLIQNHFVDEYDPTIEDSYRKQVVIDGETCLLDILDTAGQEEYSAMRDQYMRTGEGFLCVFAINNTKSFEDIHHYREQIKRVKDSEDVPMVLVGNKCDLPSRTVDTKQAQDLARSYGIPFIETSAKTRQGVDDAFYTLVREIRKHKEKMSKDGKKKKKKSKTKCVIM
KRAS G12D binding to BRAF, sequence (P62937 whole entry): as the sequence (P62937 whole entry) above

Consider `CO[C@@H](C)c1ncc(N2CCN(CC(F)(F)F)CC2)cc1-c1c2c3cc(c(F)cc3n1CC(F)(F)F)-c1csc(n1)C[C@H](NC(=O)[C@H](C(C)C)N1CCC3(CCN(C(=O)[C@H](F)Cl)CC3)C1=O)C(=O)N1CCC[C@H](N1)C(=O)OCC(C)(C)C2` (atropisomer, axis not shown; (M)) [Example 47, (2S)-2-[8-[(2R)-2-chloro-2-fluoro-acetyl]-1-oxo-2,8-diazaspiro[4.5]decan-2-yl]-N-[(7S,13S)-24-fluoro-(20M)-20-[2-[(1S)-1-methoxyethyl]-5-[4-(2,2,2-trifluoroethyl)piperazin-1-yl]-3-pyridyl]-17,17-dimethyl-8,14-dioxo-21-(2,2,2-trifluoroethyl)-15-oxa-4-thia-9,21,27,28-tetrazapentacyclo[17.5.2.1^2,5.1^9,13.0^22,26]octacosa-1(25),2,5(28),19,22(26),23-hexaen-7-yl]-3-methyl-butanamide], for which the IC50 in assay [1] was 30 nM; in assay [2] it was > 10000 nM; in the assay on SW620 (ATCC-CCL-227), > 5000 nM; in assay [3] it was 26 nM; in assay [4], 176 nM; in assay [5], > 10000 nM. Besides, the results for the concentration for half-maximal inhibition (IC50) (against KRAS G12C-BRAF complex; in assay [6]) were 79 nM and > 5000 nM, respectively.
Turning to `CO[C@@H](C)c1ncc(N2CCN(CC(F)(F)F)CC2)cc1-c1c2c3cc(c(F)cc3n1CC(F)(F)F)-c1csc(n1)C[C@H](NC(=O)[C@H](C(C)C)N1CC[C@@]3(CCN(C(=O)[C@H](F)Cl)C3)C1=O)C(=O)N1CCC[C@H](N1)C(=O)OCC(C)(C)C2` (atropisomer, axis not shown) [Example 43, (2S)-2-[(5R)-7-[(2R)-2-chloro-2-fluoro-acetyl]-1-oxo-2,7-diazaspiro[4.4]nonan-2-yl]-N-[(7S,13S)-24-fluoro-20-[2-[(1S)-1-methoxyethyl]-5-[4-(2,2,2-trifluoroethyl)piperazin-1-yl]-3-pyridyl]-17,17-dimethyl-8,14-dioxo-21-(2,2,2-trifluoroethyl)-15-oxa-4-thia-9,21,27,28-tetrazapentacyclo[17.5.2.1^2,5.1^9,13.0^22,26]octacosa-1(25),2,5(28),19,22(26),23-hexaen-7-yl]-3-methyl-butanamide], the IC50 is < 1 nM in assay [1]; 2200 nM in assay [2]; 171 nM in the assay on SW620 (ATCC-CCL-227); 6 nM in assay [3]; 44 nM in assay [4]; 1690 nM in assay [5]. The results for the IC50 (against KRAS G12C-BRAF complex; in assay [6]) were 22 nM and 67 nM, respectively.
With `CCn1c(-c2cc(N3CCN(CC(F)(F)F)CC3)cnc2[C@H](C)OC)c2c3cc(c(F)cc31)-c1csc(n1)C[C@H](NC(=O)[C@H](C(C)C)N1CC[C@@]3(CCN(C(=O)[C@H](F)Cl)C3)C1=O)C(=O)N1CCC[C@H](N1)C(=O)OCC(C)(C)C2` (atropisomer, axis not shown; (M)) [Example 35, (2S)-2-[(5R)-7-[(2R)-2-chloro-2-fluoro-acetyl]-1-oxo-2,7-diazaspiro[4.4]nonan-2-yl]-N-[(7S,13S)-21-ethyl-24-fluoro-(20M)-20-[2-[(1S)-1-methoxyethyl]-5-[4-(2,2,2-trifluoroethyl)piperazin-1-yl]-3-pyridyl]-17,17-dimethyl-8,14-dioxo-15-oxa-4-thia-9,21,27,28-tetrazapentacyclo[17.5.2.1^2,5.1^9,13.0^22,26]octacosa-1(25),2,5(28),19,22(26),23-hexaen-7-yl]-3-methyl-butanamide], the IC50 in assay [1] was < 1 nM; in assay [2], 3220 nM; with SW620 (ATCC-CCL-227) it was 3530 nM; in assay [3], 3 nM; in assay [4] it was 50 nM; in assay [5], > 10000 nM. The IC50 at KRAS G12C-BRAF complex turned out to be 23 nM; in assay [6] it was 69 nM.
